Results taken from patent US20220289728A1, “MODULATORS OF TREX1” (Constellation Pharmaceuticals, Inc., priority 2019, published 2022).

Legend:
[1] = molecular target: T1, full length human TREX1 (Homo sapiens, UniProt Q9NSU2); assay: TREX1 Biochemical Assay (fluorescence, dsDNA substrate degradation); details: 150 pM TREX1, 60 nM dsDNA substrate, 25 minutes at room temperature
T1 construct: N-terminally His-Tev tagged full length human TREX1; His-TEV (His tag with TEV site) (N); made in house; host or cells: E. coli
T1 sequence (Q9NSU2 1-314): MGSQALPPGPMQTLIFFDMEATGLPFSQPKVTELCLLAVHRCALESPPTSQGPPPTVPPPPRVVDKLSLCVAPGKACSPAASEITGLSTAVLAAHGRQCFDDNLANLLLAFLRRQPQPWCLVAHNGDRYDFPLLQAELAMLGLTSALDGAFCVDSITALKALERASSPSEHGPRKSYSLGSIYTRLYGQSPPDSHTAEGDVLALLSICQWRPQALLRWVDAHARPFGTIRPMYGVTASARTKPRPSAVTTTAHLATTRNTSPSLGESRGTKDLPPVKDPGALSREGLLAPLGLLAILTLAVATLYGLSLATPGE
Experimental: Degradation of the dsDNA liberates free fluorophore to produce a fluorescent signal. Specifically, 7.5 μL of N-terminally His-Tev tagged full length human TREX1 (expressed in E. coli and purified in house) in reaction buffer (50 mM Tris (pH 7.4), 150 mM NaCl, 2 mM DTT, 0.1 mg/mL BSA, 0.01% (v/v) Tween-20 and 100 mM MgCl2) was added to a 384-well Black ProxiPlate Plus (Perkin Elmer) which already contained compound (150 nL) at varying concentrations as a 10 point dose-response in DMSO. To this was added 7.5 μL of dsDNA substrate (Strand A: 5′ TEX615/GCT AGG CAG 3′; Strand B: 5′ CTG CCT AGC/IAbRQSp (Integrated DNA Technologies)) in reaction buffer. Final concentrations were 150 pM TREX1, 60 nM dsDNA substrate in reaction buffer with 1.0% DMSO (v/v). After 25 minutes at room temperature, reactions were quenched by the addition of 5 μL of stop buffer (same as reaction buffer plus 200 mM EDTA). Final concentrations in the quenched reaction were 112.5 pM TREX1, 45 nM DNA and 50 mM EDTA in a volume of 20 μL. After a 5-minute incubation at room temperature, plates were read in a laser sourced Envision (Perkin-Elmer), measuring fluorescence at 615 nm following excitation w/570 nm light. IC50 values were calculated by comparing the measured fluorescence at 615 nm ratio relative to control wells pre-quenched w/stop buffer (100% inhibition) and no inhibitor (0% inhibition) controls as using non-linear least square four parameter fits and either Genedata or GraphPad Prism (GraphPad Software, Inc.).

[2] = molecular target: T2, human TREX2 (residues M44-A279) (Homo sapiens, UniProt Q9BQ50); assay: TREX2 Biochemical Assay (fluorescence, dsDNA substrate degradation); details: 2.5 nM TREX2, 60 nM dsDNA substrate, 25 minutes at room temperature
T2 construct: human TREX2 (residues M44-A279, expressed in E. coli); His-TEV (His tag with TEV site) (N); made in house; host or cells: E. coli
T2 sequence (Q9BQ50 44-279 isoform Q9BQ50-1): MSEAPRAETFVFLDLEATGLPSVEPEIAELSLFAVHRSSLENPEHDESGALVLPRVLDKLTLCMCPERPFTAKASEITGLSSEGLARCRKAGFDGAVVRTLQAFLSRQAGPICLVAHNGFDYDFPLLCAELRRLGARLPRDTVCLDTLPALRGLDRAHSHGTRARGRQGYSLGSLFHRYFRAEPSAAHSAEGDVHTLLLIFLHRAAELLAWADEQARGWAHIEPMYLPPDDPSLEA
Experimental: Degradation of the dsDNA liberates free fluorophore to produce a fluorescent signal. Specifically, 7.5 μL of N-terminally His-Tev tagged human TREX2 (residues M44-A279, expressed in E. coli and purified in house) in reaction buffer (50 mM Tris (pH 7.4), 150 mM NaCl, 2 mM DTT, 0.1 mg/mL BSA, 0.01% (v/v) Tween-20 and 100 mM MgCl2) was added to a 384-well Black ProxiPlate Plus (Perkin Elmer) which already contained compound (150 nL) at varying concentrations as a 10 point dose-response in DMSO. To this was added 7.5 μL of dsDNA substrate (Strand A: 5′ TEX615/GCT AGG CAG 3′; Strand B: 5′ CTG CCT AGC/IAbRQSp (IDT)) in reaction buffer. Final concentrations were 2.5 nM TREX2, 60 nM dsDNA substrate in reaction buffer with 1.0% DMSO (v/v). After 25 minutes at room temperature, reactions were quenched by the addition of 5 μL of stop buffer (same as reaction buffer plus 200 mM EDTA). Final concentrations in the quenched reaction mixture were […] TREX2, 45 nM DNA and 50 mM EDTA in a volume of 20 μL. After a 5-minute incubation at room temperature, plates were read in a laser sourced Envision (Perkin-Elmer), measuring fluorescence at 615 nm following excitation w/570 nm light. IC50 values were calculated by comparing the measured fluorescence at 615 nm ratio relative to control wells pre-quenched w/stop buffer (100% inhibition) and no inhibitor (0% inhibition) controls as using non-linear least square four parameter fits and either Genedata or GraphPad Prism (GraphPad Software, Inc.).

[3] = system: HCT116 dual cells; assay: HCT116 Cell Assay (Lucia luciferase reporter of Type I interferon induction); assay type: cell-based, human; details: pBR322/BstNI DNA transfection, Lucia luciferase at 48 h, relative to 10 uM compound 39
From the text: HCT116 dual cells (Invivogen, San Diego, Calif., USA) are derived from the human HCT116 colorectal carcinoma cell line. Cells have been selected for the stable integration of SEAP and Luciferase reporter genes, which expression is under the control of 5 tandem response elements for NF-KB/AP1 and STAT1/STAT2, respectively. The cell line was used to monitor Type I interferon induction and subsequent signaling by measuring the activity of the Lucia luciferase secreted in the culture medium.
HCT116 cells were plated in 96-well plate(s) at 40,000 cells/well in 100 uL DMEM supplemented with 10% FBS and 25 mM Hepes (pH 7.2-7.5). After overnight settling, cells were treated with TREX1i for 4 h (maximum DMSO fraction was 0.1%) before 1.25 ug/mL pBR322/BstNI restriction digest (New England Biolabs, Ipswich, Mass., USA) was transfected with Lipofectamine LTX (ThermoFisher, Grand Island, N.Y., USA), according to product manual recommendations. Briefly, Lipofectamine LTX (0.4 uL/well) was diluted in OptiMEM (5 uL/well). pBR322/BstNI (100 ng/well) was diluted in OptiMEM (5 uL/well) before Plus reagent (0.1 uL/100 ng DNA) was added. After 5 min incubation at room temperature, the DNA mixture was mixed dropwise with the diluted Lipofectamine LTX. After an additional 10 min incubation, the transfection mix (10 uL/well) was added to the cells. Cells were maintained at 37° C. for 48 h before monitoring the Lucia Luciferase activity from the cell culture medium. EC50 values were calculated by comparing the measured luminescence relative to 10 uM compound 39 (100% inhibition) and no inhibitor (0% inhibition) controls using non-linear least-squares four parameter fits in either Genedata Screener or GraphPad Prism (GraphPad Software, Inc.).

[4] = Homo sapiens, HCT-116, 4 h pre-treatment

## CN(c1nc(C(=O)Nc2cnoc2)c(O)c(=O)n1C)C(c1ccccc1)c1ccccc1C#N (single isomer, unassigned) [Example 85]
[1]
  IC50: < 100 nM
[2]
  IC50: < 1000 nM
[3]; [4]
  EC50: < 1000 nM

## CN(c1nc(C(=O)Nc2cnoc2)c(O)c(=O)n1C)C(c1ccccc1)c1ccccc1C#N (single isomer, unassigned) [Example 86]
[1]
  IC50: < 100 nM
[2]
  IC50: < 1000 nM
[3]; 4 h pre-treatment
  EC50: < 1000 nM

## CN(c1nc(C(=O)Nc2cnoc2)c(O)c(=O)n1C)C(c1ccccc1)c1cc(F)ccc1Cl (single isomer, unassigned) [Example 87]
[1]
  IC50: < 100 nM
[2]
  IC50: < 1000 nM
[3]; [4]
  EC50: < 1000 nM

## CN(c1nc(C(=O)Nc2cnoc2)c(O)c(=O)n1C)C(c1ccccc1)c1cc(F)ccc1Cl (single isomer, unassigned) [Example 88]
[1]
  IC50: < 100 nM
[2]
  IC50: < 1000 nM
[3]; 4 h pre-treatment
  EC50: < 1000 nM

## Cc1cc(C(c2ccccc2Cl)N(C)c2nc(C(=O)Nc3cnoc3)c(O)c(=O)n2C)ccn1 (single isomer, unassigned) [Example 89]
[1]
  IC50: < 100 nM
[2]
  IC50: < 1000 nM
[3]; [4]
  EC50: < 1000 nM

## Cc1cc(C(c2ccccc2Cl)N(C)c2nc(C(=O)Nc3cnoc3)c(O)c(=O)n2C)ccn1 (single isomer, unassigned) [Example 90]
[1]
  IC50: < 100 nM
[2]
  IC50: < 1000 nM
[3]; 4 h pre-treatment
  EC50: 1000 to 10000 nM

## CCN(c1nc(C(=O)Nc2cnoc2)c(O)c(=O)n1C)C(c1ccccc1)c1ccccc1Cl (single isomer, unassigned) [Example 91]
[1]
  IC50: < 100 nM
[2]
  IC50: < 1000 nM
[3]; [4]
  EC50: 1000 to 10000 nM

## CCN(c1nc(C(=O)Nc2cnoc2)c(O)c(=O)n1C)C(c1ccccc1)c1ccccc1Cl (single isomer, unassigned) [Example 92]
[1]
  IC50: < 100 nM
[2]
  IC50: < 1000 nM
[3]; 4 h pre-treatment
  EC50: 1000 to 10000 nM

## CN(C)C(=O)c1ccc(C(c2ccccc2)N(C)c2nc(C(=O)Nc3cnoc3)c(O)c(=O)n2C)c(Cl)c1 (single isomer, unassigned) [Example 93]
[1]
  IC50: < 100 nM
[2]
  IC50: 1000 to 10000 nM
[3]; [4]
  EC50: 1000 to 10000 nM

## CN(C)C(=O)c1ccc(C(c2ccccc2)N(C)c2nc(C(=O)Nc3cnoc3)c(O)c(=O)n2C)c(Cl)c1 (single isomer, unassigned) [Example 94]
[1]
  IC50: < 100 nM
[2]
  IC50: < 1000 nM
[3]; 4 h pre-treatment
  EC50: < 1000 nM

## CN(c1nc(C(=O)Nc2cnoc2)c(O)c(=O)n1C)C(c1cccc(C#N)c1)c1ccccc1Cl (single isomer, unassigned) [Example 95]
[1]
  IC50: < 100 nM
[2]
  IC50: < 1000 nM
[3]; [4]
  EC50: < 1000 nM

## CN(c1nc(C(=O)Nc2cnoc2)c(O)c(=O)n1C)C(c1cccc(C#N)c1)c1ccccc1Cl (single isomer, unassigned) [Example 96]
[1]
  IC50: < 100 nM
[2]
  IC50: < 1000 nM
[3]; 4 h pre-treatment
  EC50: 1000 to 10000 nM

## CN(Cc1ccccc1)c1nc(C(=O)Nc2cnoc2)c(O)c(=O)n1C [Example 2]
[1]
  IC50: < 100 nM
[2]
  IC50: 1000 to 10000 nM
[3]; [4]
  EC50: 1000 to 10000 nM

## CN(Cc1c(Cl)cccc1Cl)c1nc(C(=O)Nc2cnoc2)c(O)c(=O)n1C [Example 4]
[1]
  IC50: < 100 nM
[2]
  IC50: < 1000 nM
[3]; [4]
  EC50: 1000 to 10000 nM

## CN(Cc1cc(Cl)ccc1Cl)c1nc(C(=O)Nc2cnoc2)c(O)c(=O)n1C [Example 5]
[1]
  IC50: < 100 nM
[2]
  IC50: 1000 to 10000 nM
[3]; [4]
  EC50: 1000 to 10000 nM

## CN(Cc1ccc(Cl)cc1Cl)c1nc(C(=O)Nc2cnoc2)c(O)c(=O)n1C [Example 6]
[1]
  IC50: < 100 nM
[2]
  IC50: 1000 to 10000 nM
[3]; [4]
  EC50: 1000 to 10000 nM

## CN(Cc1ccc(Cl)c(Cl)c1)c1nc(C(=O)Nc2cnoc2)c(O)c(=O)n1C [Example 7]
[1]
  IC50: < 100 nM
[2]
  IC50: 1000 to 10000 nM
[3]; [4]
  EC50: 1000 to 10000 nM

## CN(Cc1cccc(Cl)c1)c1nc(C(=O)Nc2cnoc2)c(O)c(=O)n1C [Example 8]
[1]
  IC50: < 100 nM
[2]
  IC50: 1000 to 10000 nM
[3]; [4]
  EC50: 1000 to 10000 nM

## CN(Cc1ccc(Cl)cc1)c1nc(C(=O)Nc2cnoc2)c(O)c(=O)n1C [Example 9]
[1]
  IC50: < 100 nM
[2]
  IC50: 10000 to 100000 nM
[3]; [4]
  EC50: 10000 to 100000 nM

## CN(Cc1cccc(C(F)(F)F)c1)c1nc(C(=O)Nc2cnoc2)c(O)c(=O)n1C [Example 10]
[1]
  IC50: < 100 nM
[2]
  IC50: 1000 to 10000 nM
[3]; [4]
  EC50: 10000 to 100000 nM

## CN(Cc1ccccc1C(F)(F)F)c1nc(C(=O)Nc2cnoc2)c(O)c(=O)n1C [Example 11]
[1]
  IC50: < 100 nM
[2]
  IC50: 1000 to 10000 nM
[3]; [4]
  EC50: 1000 to 10000 nM
